Patent publication US6998395B2, “Administration of estradiol metabolites for the treatment or prevention of obesity, metabolic syndrome, diabetes, and vascular and renal disorders” (University of Pittsburg,, priority 2001, dated 2006)
“Also recorded” adds a separate entry of the source.

Columns and labels:
male obese ZSF1 rats = assay: Treatment of male obese ZSF1 rats for 26 weeks with 2-hydroxyestradiol: body weight, food intake, metabolic cage and plasma parameters; format: in vivo, rat
Excerpt: Twenty 12-week-old male obese ZSF1 rats (Genetic Models Inc., Indianapolis, Ind.) were used. Obese ZSF1 rats were developed by crossing lean female Zucker Diabetic Fatty rats (ZDF +/fa) and lean male Spontaneously Hypertensive Heart Failure rats (SHHF/Mcc-fa^cp, +/cp). As recently described by Tofovic, S. P., et al., Renal Failure 22: 387 (2000) the disclosure of which is incorporated herein by reference, compared with several different rat strains including Wistar-Kyoto normotensive rats, spontaneously hypertensive rats and obese SHHF/Mcc-fa^cp rats, obese ZSF1 rats have the metabolic syndrome (i.e., hypertension, diabetes and hyperlipidemia), left ventricular dysfunction, and develop nephropathy as characterized by massive proteinuria, abnormal renal histopathology (glomerulosclerosis and severe tubulointerstitial and vascular changes) and reduced glomerular filtration rate. Thus, this rat strain develops obesity, the metabolic syndrome and the end-organ sequelae associated with the metabolic syndrome.
At baseline, animals were placed in metabolic cages and food intake, water intake, urine output and urinary excretion of proteins (bicinchoninic acid method) and glucose (Infinity™ Glucose Reagent, Sigma Diagnostics, St Louis, Mo.) were determined. Next, osmotic mini pumps infusing either vehicle (polyethylene glycol 400, 2.5 ul/hour) or 2-hydroxyestradiol (10 ug/kg/hour) were implanted subcutaneously (random assignment). Minipumps were replaced every 33 days. Metabolic cage studies were repeated 12 and 24 weeks after initiation of treatments. After 9 and 25 weeks of treatment, animals were fasted overnight, and blood samples (tail vein) for measurement of cholesterol were taken. Plasma samples were analyzed in duplicates for cholesterol levels (Sigma Diagnostics, St. Louis, Mo.). After 26 weeks of treatment, animals were fasted overnight, an oral glucose tolerance test was conducted and total glycated hemoglobin levels were determined (Sigma Diagnostics). Plasma glucose levels were measured with the Precision Q.I.D. Blood Glucose Test Strips kit (Medisense, Inc., Bedford, Mass.).
All values refer to means±SEM for 9 to 10 animals in each group. Statistical significance was calculated using either an unpaired Student's t-test or a 2-factor analysis of variance (repeated measures) followed by a Fisher's Least Significance Difference test if appropriate. The criterion of significance was p<0.05.

[1] = tested on: mesenteric vascular bed of male obese ZSF1 rats; assay: Mesenteric vascular reactivity to acetylcholine and sodium nitroprusside after 26 weeks of treatment; format: in vivo, rat; conditions: 10 ug/kg/hour s.c., versus control; for Vasodilation induced by sodium nitroprusside (mesenteric vascular resistance, FIG. 3): sodium nitroprusside 0.5, 1.5, 5.0 ug/min
Excerpt: After 26 weeks of treatment, animals were anesthetized and instrumented for assessment of heart performance, renal hemodynamics and mesenteric vascular reactivity. A PE-50 catheter was advanced via the carotid artery into the left ventricle and connected to a heart-performance analyzer (Micro-Med, Inc., Louisville, Ky.) for continuous measurement of ten time/pressure variables. A PE-50 catheter was inserted into the femoral artery and connected to a blood pressure analyzer (Micro-Med, Inc.) for measurement of arterial blood pressure. A PE-10 catheter was inserted into the left ureter for urine collection, and a flow probe (Transonic Systems, Inc., Ithaca, N.Y.) was placed on the left renal artery for determination of renal blood flow. An infusion of ^14C-inulin (0.035 uCi/20 ul saline/min) was initiated, and after 60 minutes, two 30-minute clearance periods were conducted. A mid-point blood sample (300 ul) for measurement of radioactivity was collected. Plasma and urine ^14C-inulin radioactivity were measured, and renal clearance of ^14C-inulin was calculated. A flow probe was placed on the mesenteric artery for determination of mesenteric blood flow, and a 32-gauge needle was inserted into the mesenteric artery and attached to a Y-connector for dual intramesenteric artery infusions (25 ul/min each). Angiotensin II (30 ng/min) plus methoxamine (3 ug/min) was delivered via one intramesenteric artery infusion line into the mesenteric vascular bed to the mesenteric vascular bed. […] Vascular resistances were calculated as arterial blood pressure divided by blood flow.
All values refer to means±SEM for 9 to 10 animals in each group. Statistical significance was calculated using either an unpaired Student's t-test or a 2-factor analysis of variance (repeated measures) followed by a Fisher's Least Significance Difference test if appropriate. […]

[2] = 10 ug/kg/hour s.c., 12 weeks of treatment
[3] = 10 ug/kg/hour s.c., 24 weeks of treatment
[4] = Table 1, after approximately 6 months of treatment

SMILES: C[C@]12CC[C@@H]3c4cc(O)c(O)cc4CC[C@H]3[C@@H]1CC[C@@H]2O [2-hydroxyestradiol, estra-1,3,5 (10)-triene-2,3,1 7-triol (17β)]
- Body weight (male obese ZSF1 rats; 10 ug/kg/hour s.c. osmotic minipump, 12 weeks of treatment, mean±SEM): 545±13 grams
- Body weight (male obese ZSF1 rats; 10 ug/kg/hour s.c. osmotic minipump, 26 weeks of treatment, mean±SEM): 571±13 grams
- Hypercholesterolemia (plasma cholesterol) (male obese ZSF1 rats; 10 ug/kg/hour s.c., 9 weeks of treatment, fasted overnight): 151±9 mg cholesterol/100 ml
- Food intake (male obese ZSF1 rats; [2]): 26.4±1.3 grams/day
- Glucosuria (male obese ZSF1 rats; [2]): 0.2±0.2 grams glucose/day
- Polydipsia (male obese ZSF1 rats; [2]): 40.1±4.0 mls of water consumed/day
- Polyuria (male obese ZSF1 rats; [2]): 23.6±2.4 mls of urine/day
- Food intake (male obese ZSF1 rats; [3]): 36.6±0.9 grams/day
- Glucosuria (male obese ZSF1 rats; [3]): 1.7±0.5 grams glucose/day
- Polydipsia (male obese ZSF1 rats; [3]): 67.4±4.5 mls of water consumed
- Polyuria (male obese ZSF1 rats; [3]): 45.6±3.8 mls of urine/day
- Hypercholesterolemia (plasma cholesterol) (male obese ZSF1 rats; 10 ug/kg/hour s.c., 25 weeks of treatment, fasted overnight): 247±28 mg cholesterol/100 ml
- Glycated hemoglobin (male obese ZSF1 rats; 10 ug/kg/hour s.c., 26 weeks into the study): 3.8±0.7%
- Oral glucose tolerance test: plasma glucose 2 hours after an oral dose of 2 grams of glucose per kg body weight (male obese ZSF1 rats; 10 ug/kg/hour s.c., 26 weeks of treatment, fasted overnight): 265±13 mg/100 ml
- Progression of proteinuria (urinary protein excretion, FIG. 1) (male obese ZSF1 rats; 10 ug/kg/hour s.c., baseline, 12 and 24 weeks, versus vehicle): significant (p<0.001) effect of time and treatment; also recorded: attenuated the progression of proteinuria
- Food intake (male obese ZSF1 rats; [4]): 36.6 ± 0.9 grams
- Glycated hemoglobin (male obese ZSF1 rats; [4]): 3.8 ± 0.7%
- Plasma Cholesterol (male obese ZSF1 rats; [4]): 247 ± 28 mg/100 ml
- Plasma Glucose 2 Hours After Oral Glucose Load of 2 g/kg (male obese ZSF1 rats; [4]): 265 ± 13 mg/100 ml
- Urinary Glucose Excretion (male obese ZSF1 rats; [4]): 1.7 ± 0.5 grams/day
- Urinary Protein Excretion (male obese ZSF1 rats; [4]): 333 ± 21 mg/day
- Urine Volume (male obese ZSF1 rats; [4]): 45.6 ± 3.8 mL/day
- Water Intake (male obese ZSF1 rats; [4]): 67.4 ± 4.5 mL/day
- Body weight (male obese ZSF1 rats; Table 1, after approximately 6 months of treatment, mean ± SEM): 571 ± 11 grams
- Decreases in mesenteric vascular resistance induced by acetylcholine (FIG. 2) ([1]; acetylcholine 0.3, 1.0, 3.0 ug/min): greater
- Vasodilation induced by sodium nitroprusside (mesenteric vascular resistance, FIG. 3) [1]: non-significant effect
- Vasodilation induced by sodium nitroprusside (mesenteric vascular resistance, FIG. 3) ([1]; listed as 2-Hydroxyestradiol): only slightly (non-significantly) enhanced
